Reference: patent US20050070554A1, “Substituted heterocyclic compounds and methods of use” (Amgen Inc., priority 2003, published 2005)
Like-named read-outs stand apart in the source and are kept apart here.

Molecular target: T1, LCK (Homo sapiens, UniProt P06239)
T1 construct: LCK KD GST (225-509); GST
Assay: LCK-Homogeneous Time Resolved Fluorescent (HTRF) Kinase Assay
Format: biochemical
Experimental: LCK-Homogeneous Time Resolved Fluorescent (HTRF) Kinase Assay:
The LCK HTRF assay begins with LCK in the presence of ATP phosphorylating the biotinylated peptide Gastrin. The reaction incubates for 90 min. To quench the assay detection reagents are added which both stop the reaction by diluting out the enzyme and chelating the metals due to the presence of EDTA. Once the detection reagents are added the assay incubates for 30 min to allow for equilibration of the detection reagents.
Buffer conditions are as follows: 50 mM HEPES pH 7.5, 50 mM NaCl, 20 mM MgCl, 5 mM MnCl, 2 mM DTT, 0.05% BSA.
The assay is quenched and stopped with 160 μL of detection reagent. Detection reagents are as follows: Buffer made of 50 mM Tris, pH 7.5, 100 mM NaCl, 3 mM EDTA, 0.05% BSA, 0.1% Tween20.
The assay plate is read in either a Discovery or a RubyStar.

[1] = read-out: activity in the LCK-HTRF Kinase Assay

T1 sequence (P06239 225-509): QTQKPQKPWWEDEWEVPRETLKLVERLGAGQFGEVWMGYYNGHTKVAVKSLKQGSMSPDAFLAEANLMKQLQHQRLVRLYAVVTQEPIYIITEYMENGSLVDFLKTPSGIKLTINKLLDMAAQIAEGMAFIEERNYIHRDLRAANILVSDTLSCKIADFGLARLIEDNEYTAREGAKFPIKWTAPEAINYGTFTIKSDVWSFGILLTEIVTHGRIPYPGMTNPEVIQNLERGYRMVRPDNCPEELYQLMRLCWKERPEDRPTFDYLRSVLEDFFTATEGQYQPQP

Row | Structure (SMILES) | IC50 [1] | IC50
1 | Cc1cccc(C)c1-n1c(=O)c2cnc(Nc3ccc(OCCN4CCOCC4)cc3)nc2n2c3ccccc3nc12 [No. 29, 6-(2,6-dimethylphenyl)-2-((4-((2-(4-morpholinyl)-ethyl)oxy)phenyl)amino)pyrimido[5′,4′:5,6]-pyrimido[1,2-a]benzimidazol-5(6H)-one] | < 1000 nM | 
2 | COc1cc(Nc2ncc3c(=O)n(-c4c(C)cccc4C)c4nc5ccccc5n4c3n2)cc(OC)c1OCCN1CCOCC1 [No. 30, 2-((3,5-bis(methyloxy)-4-((2-(4-morpholinyl)ethyl)-oxy)phenyl)amino)-6-(2,6-dimethylphenyl)-pyrimido[5′,4′:5,6]pyrimido[1,2-a]benzimidazol-5(6H)-one] | < 1000 nM | 
3 | Cc1cccc(C)c1-n1c(=O)c2cnc(Nc3ccc(N4CCN(C(C)C)CC4)cc3)nc2n2c3ccccc3nc12 [No. 31, 6-(2,6-dimethylphenyl)-2-((4-(4-(1-methylethyl)-1-piperazinyl)phenyl)amino)pyrimido[5′,4′:5,6]-pyrimido[1,2-a]benzimidazol-5(6H)-one] | < 1000 nM | 
4 | Cc1cccc(C)c1-n1c(=O)c2cnc(Nc3ccc(OCCCN4CCCCC4)cc3)nc2n2c3ccccc3nc12 [No. 32, 6-(2,6-dimethylphenyl)-2-((4-((3-(1-piperidinyl)-propyl)oxy)phenyl)amino)pyrimido[5′,4′:5,6]-pyrimido[1,2-a]benzimidazol-5(6H)-one] |  | < 1000 nM
5 | CNCCOc1ccc(Nc2ncc3c(=O)n(-c4c(C)cccc4C)c4nc5ccccc5n4c3n2)cc1 [No. 33, 6-(2,6-dimethylphenyl)-2-((4-((2-(methylamino)-ethyl)oxy)phenyl)amino)pyrimido[5′,4′:5,6]-pyrimido[1,2-a]benzimidazol-5(6H)-one] | < 1000 nM | 
6 | Cc1cccc(C)c1-n1c(=O)c2cnc(Nc3ccc(OCCN4CCN(C)CC4)cc3)nc2n2c3ccccc3nc12 [No. 34, 6-(2,6-dimethylphenyl)-2-((4-((2-(4-methyl-1-piperazinyl)ethyl)oxy)phenyl)amino)-pyrimido[5′,4′:5,6]pyrimido[1,2-a]benzimidazol-5(6H)-one] | < 1000 nM | 
7 | Cc1cccc(C)c1-n1c(=O)c2cnc(Nc3ccc(OCCN4CCCCC4)c(F)c3)nc2n2c3ccccc3nc12 [No. 35, 6-(2,6-dimethylphenyl)-2-((3-fluoro-4-((2-(1-piperidinyl)ethyl)oxy)phenyl)amino)-pyrimido[5′,4′:5,6]pyrimido[1,2-a]benzimidazol-5(6H)-one] | < 1000 nM | 
8 | Cc1cccc(C)c1-n1c(=O)c2cnc(Nc3cccc(OCCCN4CCCCC4)c3)nc2n2c3ccccc3nc12 [No. 36, 6-(2,6-dimethylphenyl)-2-((3-((3-(1-piperidinyl)-propyl)oxy)phenyl)amino)pyrimido[5′,4′:5,6]-pyrimido[1,2-a]benzimidazol-5(6H)-one] | < 1000 nM | 
9 | COc1cc(Nc2ncc3c(=O)n(-c4c(C)cccc4C)c4nc5ccccc5n4c3n2)ccc1N1CCNCC1 [No. 37, 6-(2,6-dimethylphenyl)-2-((3-(methyloxy)-4-(1-piperazinyl)phenyl)amino)pyrimido[5′,4′:5,6]-pyrimido[1,2-a]benzimidazol-5(6H)-one] | < 1000 nM | 
10 | Cc1cccc(C)c1-n1c(=O)c2cnc(Nc3ccc(OCCN4CCN(C)CC4)c(F)c3)nc2n2c3ccccc3nc12 [No. 38, 6-(2,6-dimethylphenyl)-2-((3-fluoro-4-((2-(4-methyl-1-piperazinyl)ethyl)oxy)phenyl)amino)-pyrimido[5′,4′:5,6]pyrimido[1,2-a]benzimidazol-5(6H)-one] |  | < 1000 nM
11 | Cc1cccc(C)c1-n1c(=O)c2cnc(Nc3cccc(OCCCN4CCN(C)CC4)c3)nc2n2c3ccccc3nc12 [No. 39, 6-(2,6-dimethylphenyl)-2-((3-((3-(4-methyl-1-piperazinyl)propyl)oxy)phenyl)amino)-pyrimido[5′,4′:5,6]pyrimido[1,2-a]benzimidazol-5(6H)-one] | < 1000 nM | 
12 | Cc1cccc(C)c1-n1c(=O)c2cnc(Nc3ccc(N4CCN(C)CC4)c(Cl)c3)nc2n2c3ccccc3nc12 [No. 40, 2-((3-chloro-4-(4-methyl-1-piperazinyl)phenyl)-amino)-6-(2,6-dimethylphenyl)pyrimido[5′,4′:5,6]-pyrimido[1,2-a]benzimidazol-5(6H)-one] | < 1000 nM | 
13 | Cc1cccc(C)c1-n1c(=O)c2cnc(Nc3ccc(N4CCN(C(C)C)CC4)c(Cl)c3)nc2n2c3ccccc3nc12 [No. 41, 2-((3-chloro-4-(4-(1-methylethyl)-1-piperazinyl)-phenyl)amino)-6-(2,6-dimethylphenyl)-pyrimido[5′,4′:5,6]pyrimido[1,2-a]benzimidazol-5(6H)-one] | < 1000 nM | 
14 | Cc1cccc(C)c1-n1c(=O)c2cnc(Nc3ccc(N4CCN(CC5CCCCC5)CC4)cc3)nc2n2c3ccccc3nc12 [No. 42, 2-((4-(4-(cyclohexylmethyl)-1-piperazinyl)phenyl)-amino)-6-(2,6-dimethylphenyl)pyrimido[5′,4′:5,6]-pyrimido[1,2-a]benzimidazol-5(6H)-one] | < 1000 nM | 
15 | COc1cc(Nc2ncc3c(=O)n(-c4c(C)cccc4C)c4nc5ccccc5n4c3n2)ccc1OCCNC(C)C [No. 43, 6-(2,6-dimethylphenyl)-2-((4-((2-((1-methylethyl)-amino)ethyl)oxy)-3-(methyloxy)phenyl)amino)-pyrimido[5′,4′:5,6]pyrimido[1,2-a]benzimidazol-5(6H)-one] | < 1000 nM | 
16 | Cc1cccc(C)c1-n1c(=O)c2cnc(Nc3ccc(N4CCN(C(C)C)CC4)c(F)c3)nc2n2c3ccccc3nc12 [No. 44, 6-(2,6-dimethylphenyl)-2-((3-fluoro-4-(4-(1-methylethyl)-1-piperazinyl)phenyl)amino)-pyrimido[5′,4′:5,6]pyrimido[1,2-a]benzimidazol-5(6H)-one] | < 1000 nM | 
17 | Cc1cccc(C)c1-n1c(=O)c2cnc(Nc3ccc(N4CCN(CCN(C)C)CC4)cc3)nc2n2c3ccccc3nc12 [No. 45, 2-((4-(4-(2-(dimethylamino)ethyl)-1-piperazinyl)-phenyl)amino)-6-(2,6-dimethylphenyl)-pyrimido[5′,4′:5,6]pyrimido[1,2-a]benzimidazol-5(6H)-one] | < 1000 nM | 
18 | COc1cc(Nc2ncc3c(=O)n(-c4c(C)cccc4C)c4nc5ccccc5n4c3n2)ccc1N1CCN(C(C)C)CC1 [No. 46, 6-(2,6-dimethylphenyl)-2-((4-(4-(1-methylethyl)-1-piperazinyl)-3-(methyloxy)phenyl)amino)-pyrimido[5′,4′:5,6]pyrimido[1,2-a]benzimidazol-5(6H)-one] | < 1000 nM | 
19 | Cc1cccc(C)c1-n1c(=O)c2cnc(Nc3ccc(OCCNC(C)C)c(Cl)c3)nc2n2c3ccccc3nc12 [No. 47, 2-((3-chloro-4-((2-((1-methylethyl)amino)ethyl)oxy)-phenyl)amino)-6-(2,6-dimethylphenyl)-pyrimido[5′,4′:5,6]pyrimido[1,2-a]benzimidazol-5(6H)-one] | < 1000 nM | 
20 | Cc1cccc(C)c1-n1c(=O)c2cnc(Nc3cccc(N4CCN(C)CC4)c3)nc2n2c3ccccc3nc12 [No. 48, 6-(2,6-dimethylphenyl)-2-((3-(4-methyl-1-piperazinyl)phenyl)amino)pyrimido[5′,4′:5,6]-pyrimido[1,2-a]benzimidazol-5(6H)-one] | < 1000 nM | 
21 | Cc1cccc(C)c1-n1c(=O)c2cnc(Nc3ccc(N4CCN(CCCN(C)C)CC4)cc3)nc2n2c3ccccc3nc12 [No. 49, 2-((4-(4-(3-(dimethylamino)propyl)-1-piperazinyl)-phenyl)amino)-6-(2,6-dimethylphenyl)-pyrimido[5′,4′:5,6]pyrimido[1,2-a]benzimidazol-5(6H)-one] | < 1000 nM | 
22 | Cc1cccc(C)c1-n1c(=O)c2cnc(Nc3ccc(N4CCN(CC(N)=O)CC4)cc3)nc2n2c3ccccc3nc12 [No. 50, 2-(4-(4-((6-(2,6-dimethylphenyl)-5-oxo-5,6-dihydropyrimido[5′,4′:5,6]pyrimido[1,2-a]-benzimidazol-2-yl)amino)phenyl)-1-piperazinyl)-acetamide] | < 1000 nM | 
23 | Cc1cccc(C)c1-n1c(=O)c2cnc(Nc3ccc(N4CCN(Cc5cccc(Cl)c5)CC4)cc3)nc2n2c3ccccc3nc12 [No. 51, 2-((4-(4-((3-chlorophenyl)methyl)-1-piperazinyl)-phenyl)amino)-6-(2,6-dimethylphenyl)-pyrimido[5′,4′:5,6]pyrimido[1,2-a]benzimidazol-5(6H)-one] | < 1000 nM | 
24 | COc1cccc(CN2CCN(c3ccc(Nc4ncc5c(=O)n(-c6c(C)cccc6C)c6nc7ccccc7n6c5n4)cc3)CC2)c1 [No. 52, 6-(2,6-dimethylphenyl)-2-((4-(4-((3-(methyloxy)-phenyl)methyl)-1-piperazinyl)phenyl)amino)-pyrimido[5′,4′:5,6]pyrimido[1,2-a]benzimidazol-5(6H)-one] | < 1000 nM | 
25 | Cc1cccc(C)c1-n1c(=O)c2cnc(Nc3ccc(N4CCN(Cc5cccc(C#N)c5)CC4)cc3)nc2n2c3ccccc3nc12 [No. 53, 3-((4-(4-((6-(2,6-dimethylphenyl)-5-oxo-5,6-dihydropyrimido[5′,4′:5,6]pyrimido[1,2-a]-benzimidazol-2-yl)amino)phenyl)-1-piperazinyl)-methyl)benzonitrile] | < 1000 nM | 
26 | COCCN1CCN(c2ccc(Nc3ncc4c(=O)n(-c5c(C)cccc5C)c5nc6ccccc6n5c4n3)cc2)CC1 [No. 54, 6-(2,6-dimethylphenyl)-2-((4-(4-(2-(methyloxy)ethyl)-1-piperazinyl)phenyl)amino)pyrimido[5′,4′:5,6]-pyrimido[1,2-a]benzimidazol-5(6H)-one] | < 1000 nM | 
27 | COc1cc(Nc2ncc3c(=O)n(-c4c(C)cccc4C)c4nc5ccccc5n4c3n2)ccc1OC[C@H]1CCCN1 [No. 55, 6-(2,6-dimethylphenyl)-2-((3-(methyloxy)4-(((2R)-2-pyrrolidinylmethyl)oxy)phenyl)amino)-pyrimido[5′,4′:5,6]pyrimido[1,2-a]benzimidazol-5(6H)-one] | < 1000 nM | 
